Data as given in patent US20260234107A1, “TRYPTAMINES AND METHODS OF TREATING MOOD DISORDERS” (priority 2022, published 2026).

What was measured:
[1] = system: monoamine oxidase A and B (MAO-A and MAO-B); assay: Stability in the presence of monoamine oxidases (human liver mitochondria preparation); set-up: half-life / microsomal CLint: dose or concentration left out as unconfirmed; details: for stability in the presence of MAO (in words): human liver mitochondria preparation; for Remaining (t = 60 min) / half-life / microsomal CLint: human liver mitochondria; for half-life / microsomal CLint: human, pH 7.4
Experimental: Liver Mitochondria Incubations. Human liver mitochondria (Xenotech H0610.M) were used.

5-HT2B = biological target: T1, 5-HT2B (Homo sapiens, UniProt P41595); assay: FLIPR Ca2+ flux agonist assay at 5-HT2B; format: cell-based; details: for 5-HT2B % Act @ Max Dose: Ca2+ flux, HEK293, max dose
T1 construct: host or cells: HEK293

5-HT2C receptor = biological target: T2, 5-HT2C receptor (Homo sapiens, UniProt P28335); assay: cell-based; format: cell-based; details: Ca2+ flux
T2 sequence (P28335 33-458): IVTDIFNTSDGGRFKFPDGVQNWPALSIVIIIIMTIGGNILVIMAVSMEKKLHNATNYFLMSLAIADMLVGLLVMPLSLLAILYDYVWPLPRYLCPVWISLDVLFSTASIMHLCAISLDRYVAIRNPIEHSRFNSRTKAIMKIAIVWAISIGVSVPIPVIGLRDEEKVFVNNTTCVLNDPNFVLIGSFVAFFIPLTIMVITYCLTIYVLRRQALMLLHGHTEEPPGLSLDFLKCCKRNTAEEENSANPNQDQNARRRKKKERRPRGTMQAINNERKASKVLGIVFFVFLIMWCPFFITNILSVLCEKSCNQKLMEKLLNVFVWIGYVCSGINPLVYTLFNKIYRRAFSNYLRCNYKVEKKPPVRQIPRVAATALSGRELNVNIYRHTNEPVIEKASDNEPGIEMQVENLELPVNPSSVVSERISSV

5-HT1A = biological target: T3, 5-HT1A (Homo sapiens, UniProt P08908); assay: FLIPR Ca2+ flux agonist assay at 5-HT1A; format: cell-based; details: for 5-HT1A % Act @ Max Dose: Ca2+ flux, CHO cells
T3 construct: host or cells: CHO cells
T3 sequence (P08908 1-422): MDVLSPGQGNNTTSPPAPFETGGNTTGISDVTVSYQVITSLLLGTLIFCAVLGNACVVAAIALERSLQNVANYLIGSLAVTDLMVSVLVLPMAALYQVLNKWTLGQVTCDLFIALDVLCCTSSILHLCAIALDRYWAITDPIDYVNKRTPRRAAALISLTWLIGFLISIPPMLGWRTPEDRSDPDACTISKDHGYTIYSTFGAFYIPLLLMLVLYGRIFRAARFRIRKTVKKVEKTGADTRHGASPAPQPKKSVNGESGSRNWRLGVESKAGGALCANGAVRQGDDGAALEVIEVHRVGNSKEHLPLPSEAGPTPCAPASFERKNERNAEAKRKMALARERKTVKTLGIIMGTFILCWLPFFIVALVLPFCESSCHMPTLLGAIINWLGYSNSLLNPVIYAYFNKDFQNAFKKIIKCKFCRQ

[2] = Stability in mouse brain homogenate; format: in vitro ADME, male CD-1 mice; details: mouse brain homogenate, 1 μM, 37° C.; for half-life at 1 µM: male, CD-1
[3] = Stability in rat brain homogenate; format: in vitro ADME, male Sprague Dawley rats; details: rat brain homogenate, 1 μM, 37° C.; for half-life at 1 µM: male, Sprague Dawley
[4] = Metabolic stability in human liver microsomes (HLM); set-up: microsomal CLint / half-life: dose or concentration left out as unconfirmed; details: for half-life / microsomal CLint: both, human, pooled human liver microsomes, pH 7.4
[5] = Plasma pharmacokinetics in rats after intravenous administration; details: for AUC(0-t) / C0 / half-life: male, Sprague Dawley, rat, plasma, iv, 1 mg/kg
[6] = human liver mitochondria 0.30 mg protein/mL, 37° C.

T1 sequence (P41595 whole entry, species assumed): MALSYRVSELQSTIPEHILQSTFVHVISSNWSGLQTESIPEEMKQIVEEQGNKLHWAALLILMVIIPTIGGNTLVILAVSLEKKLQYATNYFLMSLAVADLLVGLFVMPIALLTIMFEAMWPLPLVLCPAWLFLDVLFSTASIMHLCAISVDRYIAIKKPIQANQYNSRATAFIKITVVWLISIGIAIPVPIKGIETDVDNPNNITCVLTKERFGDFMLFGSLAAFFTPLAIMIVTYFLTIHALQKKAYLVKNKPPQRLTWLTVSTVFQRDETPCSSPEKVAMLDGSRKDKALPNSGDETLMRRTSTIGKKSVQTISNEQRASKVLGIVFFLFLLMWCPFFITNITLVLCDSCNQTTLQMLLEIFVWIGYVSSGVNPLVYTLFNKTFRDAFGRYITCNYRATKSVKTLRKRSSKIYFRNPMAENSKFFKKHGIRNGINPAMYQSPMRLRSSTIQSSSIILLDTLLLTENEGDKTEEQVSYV

Row | SMILES | stability in the presence of MAO (in words) [1] | Remaining (t = 60 min) [1] | EC50 (5-HT2B) | 5-HT2B % Act @ Max Dose (5-HT2B) | EC50 (5-HT2C receptor) | 5-HT2C % Act @ Max Dose (5-HT2C receptor) | EC50 (5-HT1A) | 5-HT1A % Act @ Max Dose (5-HT1A) | % Compound Remaining (after 120 min) [2] | % Compound Remaining (after 120 min) [3] | AUC(0-t) [5] | C0 [5] | half-life [5] | half-life [1] | microsomal CLint [1] | half-life at 1 µM [2] | half-life at 1 µM [3] | half-life [4] | microsomal CLint [4] | also measured
1 | CN(C)CCc1c[nH]c2ccc(F)cc12 [Compound 5-F-DMT, reference compound] | rapidly metabolized by MAO | 0.9% | 9.71 nM | 17.6% | 4.94 nM | 93.9% | 5720 nM | 72.9% | 0.0% | 0.0% | 35.5 ng·h/mL | 338 ng/mL | 4.8 min |  |  |  |  |  |  | CLint(MAO) [1, 6]: 266 µL/min/mg; t1/2 [1, 6]: 8.7 min; t1/2 [2]: 3.1 min; t1/2 [3]: 2.7 min; t1/2 ([4]; HLM 0.50 mg protein/mL, NADPH, 37° C., 60 minutes): 4.6 min; plasma half-life (in words) ([5]; rats, IV 1 mg/kg): very short half-lives
2 | CCNCCc1c[nH]c2ccc(F)c(O)c12 [Compound 28, 3-(2-(ethylamino)ethyl)-5-fluoro-1H-indol-4-ol] | intermediate stability | 46.4% | 38.6 nM | 19.83% | 69.7 nM | 99.03% | 9210 nM | 60.29% | 1.9% | 0.4% | 86.7 ng·h/mL | 249 ng/mL | 27.6 min | 56.5 min | 40.9 µL/min/mg | 22.1 min | 15.4 min | 42.3 min | 32.8 µL/min/mg | 
3 | CC(C)NCCc1c[nH]c2ccc(F)c(O)c12 [Compound 35, 5-fluoro-3-(2-(isopropylamino)ethyl)-1H-indol-4-ol] | intermediate stability | 22.8% | 95.9 nM | 27.19% | 324 nM | 74.81% | 93800 nM | 48.74% | 40% | 16.4% | 126 ng·h/mL | 348 ng/mL | 26.4 min | 29 min | 79.6 µL/min/mg | 90.5 min | 45.6 min | 45.7 min | 30.3 µL/min/mg | 
